Reference: ChEMBL document CHEMBL1155192, “The identification of beta-hydroxy carboxylic acids as selective MMP-12 inhibitors” (Bioorg Med Chem Lett, 2009)
pIC50: −log10 of the molar value. Values after ≈ are worked out from the molar mass of the structure shown.

How the values were obtained:
[1] = biological target: Macrophage metalloelastase (Homo sapiens, UniProt P39900); experiment: Inhibition of human recombinant MMP12
Collagenase 3 = Collagenase 3 (Homo sapiens, UniProt P45452); experiment: Inhibition of human recombinant MMP13
Interstitial collagenase = biological target: T1, Interstitial collagenase (Homo sapiens, UniProt P03956); experiment: Inhibition of human recombinant MMP1
T1 sequence (P03956 whole entry): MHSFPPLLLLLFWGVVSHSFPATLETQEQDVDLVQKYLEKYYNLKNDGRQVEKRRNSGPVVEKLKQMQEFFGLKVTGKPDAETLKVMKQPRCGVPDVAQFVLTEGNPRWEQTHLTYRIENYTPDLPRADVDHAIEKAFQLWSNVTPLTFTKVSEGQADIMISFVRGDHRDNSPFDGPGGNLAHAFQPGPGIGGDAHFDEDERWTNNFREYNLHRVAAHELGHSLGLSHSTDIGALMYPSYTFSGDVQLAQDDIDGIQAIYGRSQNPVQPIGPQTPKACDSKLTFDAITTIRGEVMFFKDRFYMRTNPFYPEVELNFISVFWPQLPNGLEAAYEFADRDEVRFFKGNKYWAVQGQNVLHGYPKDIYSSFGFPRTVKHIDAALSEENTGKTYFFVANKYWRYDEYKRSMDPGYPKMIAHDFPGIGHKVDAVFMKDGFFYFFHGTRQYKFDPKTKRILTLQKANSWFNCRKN

[2] = biological target: Disintegrin and metalloproteinase domain-containing protein 17 (Homo sapiens, UniProt P78536); experiment: Inhibition of human recombinant TACE
Stromelysin-1 = Stromelysin-1 (Homo sapiens, UniProt P08254); experiment: Inhibition of human recombinant MMP3
[3] = biological target: Matrix metalloproteinase-9 (Homo sapiens, UniProt P14780); experiment: Inhibition of human recombinant MMP9
[4] = biological target: Angiotensin-converting enzyme (Homo sapiens, UniProt P12821); experiment: Inhibition of human recombinant ACE
[5] = Inhibition of guinea pig recombinant MMP12; set-up: species or system Cavia porcellus
[6] = biological target: Matrix metalloproteinase-14 (Homo sapiens, UniProt P50281); experiment: Inhibition of human recombinant MMP14
Matrilysin = biological target: T2, Matrilysin (Homo sapiens, UniProt P09237); experiment: Inhibition of human recombinant MMP7
T2 sequence (P09237 whole entry): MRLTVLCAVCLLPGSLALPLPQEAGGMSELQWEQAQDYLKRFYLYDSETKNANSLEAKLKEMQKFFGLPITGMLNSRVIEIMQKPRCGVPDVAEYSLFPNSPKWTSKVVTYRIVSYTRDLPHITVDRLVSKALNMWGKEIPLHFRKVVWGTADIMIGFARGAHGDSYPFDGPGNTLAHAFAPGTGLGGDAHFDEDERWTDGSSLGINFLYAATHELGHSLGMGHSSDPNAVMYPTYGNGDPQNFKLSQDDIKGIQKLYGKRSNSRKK

[7] = biological target: 72 kDa type IV collagenase (Homo sapiens, UniProt P08253); experiment: Inhibition of human recombinant MMP2
[8] = Lipophilicity, log D at pH 6.2; format: physicochemical; conditions: buffer
[9] = Lipophilicity, log D at pH 7.4; format: physicochemical; conditions: buffer
[10] = Solubility at pH 6.2; format: physicochemical; conditions: buffer
[11] = Solubility at pH 7.4; format: physicochemical; conditions: buffer

Sequence of Macrophage metalloelastase (P39900 whole entry): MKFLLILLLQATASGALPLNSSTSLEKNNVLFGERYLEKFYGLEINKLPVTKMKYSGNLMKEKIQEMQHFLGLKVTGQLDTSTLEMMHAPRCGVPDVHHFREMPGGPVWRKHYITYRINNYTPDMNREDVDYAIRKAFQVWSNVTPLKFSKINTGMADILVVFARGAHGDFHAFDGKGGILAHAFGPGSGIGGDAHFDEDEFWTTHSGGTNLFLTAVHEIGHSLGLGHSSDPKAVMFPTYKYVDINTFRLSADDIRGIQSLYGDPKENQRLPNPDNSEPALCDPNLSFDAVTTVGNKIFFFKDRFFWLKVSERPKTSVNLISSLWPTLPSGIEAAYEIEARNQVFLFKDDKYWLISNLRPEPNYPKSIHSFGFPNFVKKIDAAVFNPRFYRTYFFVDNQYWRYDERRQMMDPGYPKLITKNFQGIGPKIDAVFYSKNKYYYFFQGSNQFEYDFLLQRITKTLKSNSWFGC
Sequence of Matrix metalloproteinase-9 (P14780 whole entry): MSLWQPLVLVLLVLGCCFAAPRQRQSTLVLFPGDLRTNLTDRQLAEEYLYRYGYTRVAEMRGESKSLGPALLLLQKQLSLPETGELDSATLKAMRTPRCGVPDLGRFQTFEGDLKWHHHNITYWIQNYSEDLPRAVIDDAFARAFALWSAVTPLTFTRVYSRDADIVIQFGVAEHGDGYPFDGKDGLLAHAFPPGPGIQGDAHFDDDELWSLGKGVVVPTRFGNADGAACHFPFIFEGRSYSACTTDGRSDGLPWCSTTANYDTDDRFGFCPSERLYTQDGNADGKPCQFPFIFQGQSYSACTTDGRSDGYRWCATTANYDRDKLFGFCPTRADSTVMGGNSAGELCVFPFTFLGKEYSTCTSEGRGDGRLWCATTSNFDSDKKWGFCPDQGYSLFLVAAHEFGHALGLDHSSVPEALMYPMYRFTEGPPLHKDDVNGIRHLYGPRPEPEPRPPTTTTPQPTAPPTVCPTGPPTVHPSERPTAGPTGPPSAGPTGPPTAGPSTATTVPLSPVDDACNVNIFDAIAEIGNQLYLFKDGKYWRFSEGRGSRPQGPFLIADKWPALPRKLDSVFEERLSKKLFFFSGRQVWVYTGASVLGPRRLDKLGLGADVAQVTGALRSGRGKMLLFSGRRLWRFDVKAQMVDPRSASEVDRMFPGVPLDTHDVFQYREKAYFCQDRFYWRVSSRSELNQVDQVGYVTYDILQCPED
Sequence of Angiotensin-converting enzyme (P12821 whole entry): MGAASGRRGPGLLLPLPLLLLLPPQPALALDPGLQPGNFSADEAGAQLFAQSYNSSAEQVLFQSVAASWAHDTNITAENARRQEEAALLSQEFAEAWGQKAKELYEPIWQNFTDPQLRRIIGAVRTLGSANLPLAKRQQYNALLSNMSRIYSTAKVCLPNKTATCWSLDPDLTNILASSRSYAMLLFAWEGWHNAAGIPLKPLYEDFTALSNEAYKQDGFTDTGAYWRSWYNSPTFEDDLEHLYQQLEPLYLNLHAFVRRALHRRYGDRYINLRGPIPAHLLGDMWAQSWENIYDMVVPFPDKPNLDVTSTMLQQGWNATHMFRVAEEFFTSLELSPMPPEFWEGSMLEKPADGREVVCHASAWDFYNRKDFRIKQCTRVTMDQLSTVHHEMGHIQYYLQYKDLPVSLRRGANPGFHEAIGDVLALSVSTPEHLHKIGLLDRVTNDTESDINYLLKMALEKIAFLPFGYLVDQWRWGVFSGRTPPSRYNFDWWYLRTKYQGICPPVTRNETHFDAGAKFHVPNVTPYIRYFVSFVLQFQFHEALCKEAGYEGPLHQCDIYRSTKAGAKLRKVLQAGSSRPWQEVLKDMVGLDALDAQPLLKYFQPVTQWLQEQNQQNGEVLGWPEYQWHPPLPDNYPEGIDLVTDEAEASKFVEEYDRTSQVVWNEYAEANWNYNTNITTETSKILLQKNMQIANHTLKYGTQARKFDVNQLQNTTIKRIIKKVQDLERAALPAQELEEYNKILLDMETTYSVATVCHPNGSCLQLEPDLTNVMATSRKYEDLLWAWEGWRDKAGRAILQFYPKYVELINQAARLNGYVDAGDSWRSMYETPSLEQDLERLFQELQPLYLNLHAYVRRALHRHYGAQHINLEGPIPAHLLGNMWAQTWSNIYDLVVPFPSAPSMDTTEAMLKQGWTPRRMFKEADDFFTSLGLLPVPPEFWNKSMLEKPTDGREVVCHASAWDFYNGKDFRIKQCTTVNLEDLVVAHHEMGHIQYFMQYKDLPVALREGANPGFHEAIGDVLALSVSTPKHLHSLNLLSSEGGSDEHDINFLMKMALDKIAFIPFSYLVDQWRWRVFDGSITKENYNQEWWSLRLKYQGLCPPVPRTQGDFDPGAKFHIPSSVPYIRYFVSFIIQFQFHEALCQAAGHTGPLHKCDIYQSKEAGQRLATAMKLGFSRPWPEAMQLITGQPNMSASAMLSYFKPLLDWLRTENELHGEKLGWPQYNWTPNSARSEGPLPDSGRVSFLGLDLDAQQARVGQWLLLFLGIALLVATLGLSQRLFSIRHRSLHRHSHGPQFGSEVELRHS
Sequence of Stromelysin-1 (P08254 whole entry): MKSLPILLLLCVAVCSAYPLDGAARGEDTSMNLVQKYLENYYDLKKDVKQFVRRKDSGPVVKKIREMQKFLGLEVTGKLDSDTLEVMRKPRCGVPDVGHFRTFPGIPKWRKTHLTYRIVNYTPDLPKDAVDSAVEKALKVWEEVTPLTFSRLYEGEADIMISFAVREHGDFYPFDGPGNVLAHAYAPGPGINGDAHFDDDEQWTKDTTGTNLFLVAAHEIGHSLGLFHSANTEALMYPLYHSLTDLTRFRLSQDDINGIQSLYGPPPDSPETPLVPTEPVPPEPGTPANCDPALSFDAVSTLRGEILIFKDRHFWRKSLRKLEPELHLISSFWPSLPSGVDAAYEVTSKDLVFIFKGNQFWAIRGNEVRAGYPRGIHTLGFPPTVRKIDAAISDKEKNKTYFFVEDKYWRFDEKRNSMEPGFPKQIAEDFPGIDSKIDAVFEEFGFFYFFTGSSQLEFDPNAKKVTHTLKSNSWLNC
Sequence of Disintegrin and metalloproteinase domain-containing protein 17 (P78536 whole entry, the tested form may be a part): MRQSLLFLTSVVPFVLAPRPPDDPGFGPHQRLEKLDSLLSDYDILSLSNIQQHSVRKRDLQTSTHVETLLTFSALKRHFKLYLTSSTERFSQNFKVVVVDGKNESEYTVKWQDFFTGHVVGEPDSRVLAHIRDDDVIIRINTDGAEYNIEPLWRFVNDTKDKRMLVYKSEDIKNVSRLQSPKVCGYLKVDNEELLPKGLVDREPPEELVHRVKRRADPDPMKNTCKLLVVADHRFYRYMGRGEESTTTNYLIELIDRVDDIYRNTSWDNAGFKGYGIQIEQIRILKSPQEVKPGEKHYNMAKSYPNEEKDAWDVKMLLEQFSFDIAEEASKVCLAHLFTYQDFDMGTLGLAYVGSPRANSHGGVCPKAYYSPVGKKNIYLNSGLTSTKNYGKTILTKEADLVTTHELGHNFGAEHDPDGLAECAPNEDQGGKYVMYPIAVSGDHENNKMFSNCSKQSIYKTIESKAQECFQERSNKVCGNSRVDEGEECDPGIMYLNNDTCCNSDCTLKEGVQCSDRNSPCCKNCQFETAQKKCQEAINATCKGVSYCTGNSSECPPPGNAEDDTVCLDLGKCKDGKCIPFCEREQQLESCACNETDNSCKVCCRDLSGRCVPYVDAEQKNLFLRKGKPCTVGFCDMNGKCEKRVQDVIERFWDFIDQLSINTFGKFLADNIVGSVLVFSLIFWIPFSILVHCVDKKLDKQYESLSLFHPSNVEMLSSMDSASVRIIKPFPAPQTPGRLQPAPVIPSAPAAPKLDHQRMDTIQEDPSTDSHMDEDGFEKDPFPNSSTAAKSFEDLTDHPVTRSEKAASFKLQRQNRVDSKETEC
Sequence of 72 kDa type IV collagenase (P08253 whole entry): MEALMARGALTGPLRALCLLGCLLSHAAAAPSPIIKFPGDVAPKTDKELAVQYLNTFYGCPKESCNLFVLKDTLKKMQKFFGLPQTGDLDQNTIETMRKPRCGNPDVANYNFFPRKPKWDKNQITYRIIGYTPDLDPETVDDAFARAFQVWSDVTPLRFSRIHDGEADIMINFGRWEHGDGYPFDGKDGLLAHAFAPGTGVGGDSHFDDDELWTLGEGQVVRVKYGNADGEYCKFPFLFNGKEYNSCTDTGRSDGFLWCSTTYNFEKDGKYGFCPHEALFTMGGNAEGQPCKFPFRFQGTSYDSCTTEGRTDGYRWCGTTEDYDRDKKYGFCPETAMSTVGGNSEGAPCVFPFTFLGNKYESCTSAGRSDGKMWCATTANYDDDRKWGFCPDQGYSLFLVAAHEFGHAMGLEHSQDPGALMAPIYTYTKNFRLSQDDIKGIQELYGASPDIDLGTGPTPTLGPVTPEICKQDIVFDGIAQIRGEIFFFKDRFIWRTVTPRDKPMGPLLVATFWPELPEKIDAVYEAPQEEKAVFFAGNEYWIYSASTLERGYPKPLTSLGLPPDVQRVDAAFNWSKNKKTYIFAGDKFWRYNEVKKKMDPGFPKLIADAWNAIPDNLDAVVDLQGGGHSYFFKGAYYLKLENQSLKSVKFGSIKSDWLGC

Row | SMILES | pIC50 [1] | pIC50 (Collagenase 3) | pIC50 (Interstitial collagenase) | other results
1 | O=C(O)CC(O)CCc1ccc(-c2ccncc2)cc1 (stereo unspecified) | 7.26 | 5.42 | – | –
2 | CC(=O)OC(CCc1ccc(-c2ccccc2)cc1)CC(=O)O (stereo unspecified) | 4.26 | < 4.01 | < 4.01 | –
3 | O=C(O)CC(O)CCc1ccc(-c2ccc3c(c2)oc2ccccc23)cc1 (stereo unspecified) | 4.70 | 4.47 | < 4.01 | –
4 | O=C(O)CC(O)CCc1ccc(-c2ccc(OCc3ccccc3)cc2)cc1 (stereo unspecified) | 5.43 | < 4.01 | < 4.01 | –
5 | N#Cc1cccc(-c2ccc(CCC(O)CC(=O)O)cc2)c1 (stereo unspecified) | 5.47 | 4.28 | < 4.01 | –
6 | O=C(O)C[S+]([O-])CCc1ccc(-c2ccccc2)cc1 (stereo unspecified) | 5.35 | 4.02 | < 4.01 | –
7 | CSc1ccc(-c2ccc(CCC(O)CC(=O)O)cc2)cc1 (stereo unspecified) | 7.24 | 5.95 | < 4.01 | –
8 | CC(=O)c1ccc(-c2ccc(CCC(O)CC(=O)O)cc2)cc1 (stereo unspecified) | – | 6.01 | < 4.01 | –
9 | O=C(O)CC(O)CCc1ccc(-c2cc3ccccc3o2)cc1 (stereo unspecified) | 6.74 | 4.30 | – | –
10 | O=C(O)CC(O)CCc1ccc(-c2ccccc2)cc1 (single isomer, unassigned) | 6.47 | 5.00 | < 4.01 | pIC50 [2]: < 4.01; pIC50 (Stromelysin-1): < 4.01; pIC50 [3]: 4.98; pIC50 [4]: < 3.60; pIC50 [5]: 5.94; pIC50 [6]: 4.44; pIC50 (Matrilysin): < 4.01
11 | N#Cc1ccc(-c2ccc(CCC(O)CC(=O)O)cc2)cc1 (stereo unspecified) | 7.07 | 5.61 | < 4.01 | –
12 | O=C(O)CC(O)CCc1ccc(-c2ccccc2)cc1 (stereo in doubt) | 6.10 | 4.43 | < 4.01 | pIC50 [2]: < 4.01; pIC50 (Stromelysin-1): < 4.01; pIC50 [3]: 4.72; pIC50 [4]: < 3.60; pIC50 [5]: 5.33; pIC50 [6]: < 5.05; pIC50 (Matrilysin): < 4.01
13 | O=C(O)CC(O)CCc1ccc(-c2ccccc2)cc1 (racemic) | – | 4.92 | < 4.01 | pIC50 [7]: 5.34; pIC50 [2]: < 4.01; logD [8]: 1.43; logD [9]: 0.55; pIC50 (Stromelysin-1): < 4.01; solubility [10]: 450 µg/mL (≈ 1660 µM); solubility [11]: 960 µg/mL (≈ 3550 µM); pIC50 [3]: 4.78; pIC50 [4]: < 3.60; pIC50 [5]: 6.04; pIC50 [6]: 4.36; pIC50 (Matrilysin): < 4.01
14 | O=C(O)CS(=O)(=O)CCc1ccc(-c2ccccc2)cc1 | 5.60 | 4.95 | < 4.01 | –
15 | O=C(O)CC(=O)CCc1ccc(-c2ccccc2)cc1 | 5.11 | < 4.01 | < 4.01 | –
16 | COC(CCc1ccc(-c2ccccc2)cc1)CC(=O)O (stereo unspecified) | 5.45 | < 4.01 | < 4.01 | –
17 | O=C(O)CC(O)CCc1ccc(-c2ccc(Oc3ccccc3)cc2)cc1 (stereo unspecified) | 4.70 | 4.38 | < 4.01 | –
18 | O=C(O)CSCCc1ccc(-c2ccccc2)cc1 | 4.93 | 4.02 | < 4.01 | –
